# Columns and labels:
# [1] = biological target: protein kinases (panel of Table 4) (Homo sapiens, UniProt P12931); assay: Kinase selectivity profile, kinase inhibition IC50 (Table 4), ATP 100 μM; assay type: biochemical; settings: kinase Src
# [2] = biological target: MAPKAP-K1a (Homo sapiens, UniProt Q15418); assay: Kinase selectivity profile, MAPKAP-K1a; assay type: biochemical; settings: 5 μM test compound, compared to control; ATP 50 μM
# Procedure: (§1) The kinase selectivity profiles of selected example compounds were determined, essentially as described (Bain, J.; McLauchlan, H.; Elliott, M.; Cohen, P. Biochemical Journal, 2003, 371, 199.); the results are shown in Tables 3 & 4. For the assays shown in Table 3, the kinases were assayed at the following ATP concentrations: SAPK4, PKBΔph, GSK3b, SAPK3, CK2, MKK1, PIM2, IKKB, ERK8, and PRK2 at 5 μM; JNK, PRAK, ROCK-II, SAPK2b, CDK2, CHK1, MSK1, CSK, P70S6K, PKA, CK1, MAPKAP-K2, SGK, PKCa, PDK1, NEK 7, and MAPKAP-K3 at 20 μM; SAPK2a, LCK, AMPK, MAPK2, DYRK1a, MAPKAP-K1a, NEK-6, NEK2a, PBK, CAMK-1, SRPK-1, JNK3, MNK2, RSK2, MNK1, PKBB, and SmMLCK at 50 μM. For the assays in Table 4 the ATP concentration was 100 μM throughout.
# [3] = biological target: MAPKAP-K2 (Homo sapiens, UniProt P49137); assay: Kinase selectivity profile, MAPKAP-K2; assay type: biochemical; settings: 5 μM test compound, compared to control; ATP 20 μM
# Chain of MAPKAP-K2 (P49137 whole entry, species assumed): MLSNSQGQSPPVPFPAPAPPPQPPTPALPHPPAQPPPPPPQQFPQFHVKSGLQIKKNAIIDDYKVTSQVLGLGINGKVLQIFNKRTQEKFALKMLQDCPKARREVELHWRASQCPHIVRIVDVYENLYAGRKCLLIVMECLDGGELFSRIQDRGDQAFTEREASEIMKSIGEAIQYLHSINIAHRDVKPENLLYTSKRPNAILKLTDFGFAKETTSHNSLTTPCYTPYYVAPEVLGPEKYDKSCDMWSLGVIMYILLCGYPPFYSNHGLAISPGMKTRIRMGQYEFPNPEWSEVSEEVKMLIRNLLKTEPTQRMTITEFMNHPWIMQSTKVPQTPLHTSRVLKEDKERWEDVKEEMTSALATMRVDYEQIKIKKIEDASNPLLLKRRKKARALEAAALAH
# Procedure: as §1
# [4] = biological target: MAPKAP-K1b (Homo sapiens, UniProt P51812); assay: Kinase selectivity profile, MAPKAP-K1b; assay type: biochemical; settings: 5 μM test compound, compared to control
# Procedure: as §1
# [5] = biological target: SGK (Homo sapiens, UniProt O00141); assay: Kinase selectivity profile, SGK; assay type: biochemical; settings: 5 μM test compound, compared to control; ATP 20 μM
# Procedure: as §1
# [6] = biological target: MNK2 (Homo sapiens, UniProt Q9HBH9); assay: Kinase selectivity profile, MNK2; assay type: biochemical; settings: 5 μM test compound, compared to control; ATP 50 μM
# Chain of MNK2 (Q9HBH9 whole entry, species assumed): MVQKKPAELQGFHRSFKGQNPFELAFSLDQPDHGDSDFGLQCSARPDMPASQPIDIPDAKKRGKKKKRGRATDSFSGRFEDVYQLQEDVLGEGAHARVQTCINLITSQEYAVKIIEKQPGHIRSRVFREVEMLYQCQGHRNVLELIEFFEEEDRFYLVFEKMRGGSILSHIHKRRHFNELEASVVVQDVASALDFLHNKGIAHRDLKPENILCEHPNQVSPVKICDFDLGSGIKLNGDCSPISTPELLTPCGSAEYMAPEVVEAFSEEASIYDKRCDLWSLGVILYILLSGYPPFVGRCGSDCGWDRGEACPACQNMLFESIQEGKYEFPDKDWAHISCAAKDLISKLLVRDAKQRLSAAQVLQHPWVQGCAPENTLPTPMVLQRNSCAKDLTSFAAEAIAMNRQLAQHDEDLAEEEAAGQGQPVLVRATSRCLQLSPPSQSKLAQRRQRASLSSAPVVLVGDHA
# Procedure: as §1
# [7] = biological target: PKA (Homo sapiens, UniProt P17612); assay: Kinase selectivity profile, PKA; assay type: biochemical; settings: 5 μM test compound, compared to control; ATP 20 μM
# Procedure: as §1
# [8] = biological target: MNK1 (Homo sapiens, UniProt Q9BUB5); assay: Kinase selectivity profile, MNK1; assay type: biochemical; settings: 5 μM test compound, compared to control; ATP 50 μM
# Procedure: as §1
# [9] = biological target: NEK6 (Homo sapiens, UniProt Q9HC98); assay: Kinase selectivity profile, NEK6; assay type: biochemical; settings: 5 μM test compound, compared to control; ATP 50 μM
# Procedure: as §1
# [10] = biological target: Aurora B (Homo sapiens, UniProt Q96GD4); assay: Kinase selectivity profile, Aurora B; assay type: biochemical; settings: 5 μM test compound, compared to control
# Chain of Aurora B (Q96GD4 whole entry): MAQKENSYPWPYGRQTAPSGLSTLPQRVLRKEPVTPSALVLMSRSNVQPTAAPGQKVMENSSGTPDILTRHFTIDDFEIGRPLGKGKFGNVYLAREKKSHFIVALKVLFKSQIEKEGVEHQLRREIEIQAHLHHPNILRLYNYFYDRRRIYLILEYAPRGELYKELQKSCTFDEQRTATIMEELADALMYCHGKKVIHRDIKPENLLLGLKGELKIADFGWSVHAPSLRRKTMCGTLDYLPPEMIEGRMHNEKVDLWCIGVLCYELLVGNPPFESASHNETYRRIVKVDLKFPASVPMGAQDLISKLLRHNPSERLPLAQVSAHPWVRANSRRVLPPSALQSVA
# Procedure: as §1
# [11] = biological target: smMLCK (Homo sapiens, UniProt Q15746); assay: Kinase selectivity profile, smMLCK; assay type: biochemical; settings: 5 μM test compound, compared to control; ATP 50 μM
# Procedure: as §1
# [12] = biological target: GSK3b (Homo sapiens, UniProt P49841); assay: Kinase selectivity profile, GSK3b; assay type: biochemical; settings: 5 μM test compound, compared to control; ATP 5 μM
# Procedure: as §1
# [13] = biological target: CHK1 (Homo sapiens, UniProt O14757); assay: Kinase selectivity profile, CHK1; assay type: biochemical; settings: 5 μM test compound, compared to control; ATP 20 μM
# Chain of CHK1 (O14757 whole entry, species assumed): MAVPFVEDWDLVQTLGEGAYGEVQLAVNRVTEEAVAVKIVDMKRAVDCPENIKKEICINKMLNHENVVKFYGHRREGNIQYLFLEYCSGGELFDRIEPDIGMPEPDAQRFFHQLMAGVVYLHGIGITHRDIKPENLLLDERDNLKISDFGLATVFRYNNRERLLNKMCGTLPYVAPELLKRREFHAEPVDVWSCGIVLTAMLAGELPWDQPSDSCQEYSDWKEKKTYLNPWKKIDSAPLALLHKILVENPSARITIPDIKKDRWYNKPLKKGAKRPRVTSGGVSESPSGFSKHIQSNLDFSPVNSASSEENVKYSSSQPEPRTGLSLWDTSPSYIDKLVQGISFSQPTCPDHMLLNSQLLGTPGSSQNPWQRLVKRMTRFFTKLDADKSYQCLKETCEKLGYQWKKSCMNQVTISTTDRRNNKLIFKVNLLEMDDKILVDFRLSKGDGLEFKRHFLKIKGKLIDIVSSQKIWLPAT
# Procedure: as §1
# [14] = biological target: SRPK1 (Homo sapiens, UniProt Q96SB4); assay: Kinase selectivity profile, SRPK1; assay type: biochemical; settings: 5 μM test compound, compared to control; ATP 50 μM
# Chain of SRPK1 (Q96SB4 whole entry, species assumed): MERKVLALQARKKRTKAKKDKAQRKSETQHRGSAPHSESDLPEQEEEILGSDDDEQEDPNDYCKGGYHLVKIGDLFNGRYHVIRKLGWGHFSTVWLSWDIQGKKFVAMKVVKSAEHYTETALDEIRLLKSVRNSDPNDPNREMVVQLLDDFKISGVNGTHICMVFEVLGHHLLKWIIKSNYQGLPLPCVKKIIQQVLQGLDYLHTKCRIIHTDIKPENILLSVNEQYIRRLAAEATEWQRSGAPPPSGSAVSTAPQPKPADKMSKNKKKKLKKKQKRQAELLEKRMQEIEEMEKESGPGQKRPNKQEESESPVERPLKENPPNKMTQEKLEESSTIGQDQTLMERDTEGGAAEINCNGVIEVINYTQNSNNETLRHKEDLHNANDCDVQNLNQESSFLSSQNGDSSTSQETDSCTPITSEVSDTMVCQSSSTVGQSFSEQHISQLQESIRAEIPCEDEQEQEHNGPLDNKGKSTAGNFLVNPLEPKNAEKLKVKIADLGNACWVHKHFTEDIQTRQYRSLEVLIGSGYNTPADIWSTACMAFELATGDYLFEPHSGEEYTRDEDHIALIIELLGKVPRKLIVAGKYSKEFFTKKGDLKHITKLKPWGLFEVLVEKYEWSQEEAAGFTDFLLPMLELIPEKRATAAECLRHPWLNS
# Procedure: as §1
# [15] = biological target: JNK3 (Homo sapiens, UniProt P53779); assay: Kinase selectivity profile, JNK3; assay type: biochemical; settings: 5 μM test compound, compared to control; ATP 50 μM
# Chain of JNK3 (P53779 whole entry, species assumed): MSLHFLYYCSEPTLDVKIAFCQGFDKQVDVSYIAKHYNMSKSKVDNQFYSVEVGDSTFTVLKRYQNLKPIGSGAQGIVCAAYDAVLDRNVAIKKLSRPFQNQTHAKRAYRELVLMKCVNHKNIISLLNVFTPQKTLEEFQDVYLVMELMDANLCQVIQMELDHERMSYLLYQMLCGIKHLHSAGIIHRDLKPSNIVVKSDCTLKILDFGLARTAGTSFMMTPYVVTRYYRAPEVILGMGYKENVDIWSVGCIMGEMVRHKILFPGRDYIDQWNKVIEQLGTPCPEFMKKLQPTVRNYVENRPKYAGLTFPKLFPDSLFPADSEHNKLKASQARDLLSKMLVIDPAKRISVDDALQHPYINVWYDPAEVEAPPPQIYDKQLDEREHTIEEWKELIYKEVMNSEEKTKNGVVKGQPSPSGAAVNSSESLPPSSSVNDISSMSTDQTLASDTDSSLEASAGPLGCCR
# Procedure: as §1
# [16] = biological target: CAMK-1 (Homo sapiens, UniProt Q14012); assay: Kinase selectivity profile, CAMK-1; assay type: biochemical; settings: 5 μM test compound, compared to control; ATP 50 μM
# Chain of CAMK-1 (Q14012 whole entry, species assumed): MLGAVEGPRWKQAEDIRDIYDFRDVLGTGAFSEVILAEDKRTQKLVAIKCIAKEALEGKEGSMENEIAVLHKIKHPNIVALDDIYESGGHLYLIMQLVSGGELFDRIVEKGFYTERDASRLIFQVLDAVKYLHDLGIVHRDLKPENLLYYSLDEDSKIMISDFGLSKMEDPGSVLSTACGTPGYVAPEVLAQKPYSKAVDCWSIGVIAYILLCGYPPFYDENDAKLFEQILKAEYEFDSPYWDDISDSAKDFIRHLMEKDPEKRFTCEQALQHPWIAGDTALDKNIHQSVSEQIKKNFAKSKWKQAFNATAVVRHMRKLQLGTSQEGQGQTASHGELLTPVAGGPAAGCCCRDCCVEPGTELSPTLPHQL
# Procedure: as §1
# [17] = biological target: CSK (Homo sapiens, UniProt P41240); assay: Kinase selectivity profile, CSK; assay type: biochemical; settings: 5 μM test compound, compared to control; ATP 20 μM
# Chain of CSK (P41240 whole entry, species assumed): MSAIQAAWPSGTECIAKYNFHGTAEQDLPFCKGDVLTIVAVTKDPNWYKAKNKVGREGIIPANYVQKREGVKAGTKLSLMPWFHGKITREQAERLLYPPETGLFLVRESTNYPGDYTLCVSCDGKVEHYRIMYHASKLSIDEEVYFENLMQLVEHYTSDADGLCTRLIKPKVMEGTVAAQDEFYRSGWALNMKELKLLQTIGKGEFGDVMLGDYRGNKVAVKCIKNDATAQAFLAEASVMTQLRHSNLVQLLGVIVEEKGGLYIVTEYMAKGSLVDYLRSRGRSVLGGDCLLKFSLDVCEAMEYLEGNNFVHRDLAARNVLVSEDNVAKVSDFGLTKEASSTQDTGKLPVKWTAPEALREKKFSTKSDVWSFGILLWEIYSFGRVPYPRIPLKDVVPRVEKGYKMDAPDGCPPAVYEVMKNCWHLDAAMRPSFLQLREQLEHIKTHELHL
# Procedure: as §1
# [18] = biological target: DYRK1a (Homo sapiens, UniProt Q13627); assay: Kinase selectivity profile, DYRK1a; assay type: biochemical; settings: 5 μM test compound, compared to control; ATP 50 μM
# Procedure: as §1
# [19] = tested on: AMPK; assay: Kinase selectivity profile, AMPK; assay type: biochemical; settings: 5 μM test compound, compared to control; ATP 50 μM
# Procedure: as §1
# [20] = biological target: IKKb (Homo sapiens, UniProt O14920); assay: Kinase selectivity profile, IKKb; assay type: biochemical; settings: 5 μM test compound, compared to control; ATP 5 μM
# Procedure: as §1
# [21] = tested on: CK2; assay: Kinase selectivity profile, CK2; assay type: biochemical; settings: 5 μM test compound, compared to control; ATP 5 μM
# Procedure: as §1
# [22] = biological target: ROCK-II (Homo sapiens, UniProt O75116); assay: Kinase selectivity profile, ROCK-II; assay type: biochemical; settings: 5 μM test compound, compared to control; ATP 20 μM
# Procedure: as §1
# [23] = biological target: CDK2-cyclin A (Homo sapiens, UniProt P24941); assay: Kinase selectivity profile, CDK2/cyclin A; assay type: biochemical; settings: 5 μM test compound, compared to control; ATP 20 μM
# Procedure: as §1
# [24] = biological target: PKBb (Homo sapiens, UniProt P31751); assay: Kinase selectivity profile, PKBb; assay type: biochemical; settings: 5 μM test compound, compared to control; ATP 50 μM
# Procedure: as §1
# [25] = biological target: JNK/SAPK1c (Homo sapiens, UniProt P45983); assay: Kinase selectivity profile, JNK/SAPK1c; assay type: biochemical; settings: 5 μM test compound, compared to control; ATP 20 μM
# Procedure: as §1
# [26] = biological target: MAPK2/ERK2 (Homo sapiens, UniProt P28482); assay: Kinase selectivity profile, MAPK2/ERK2; assay type: biochemical; settings: 5 μM test compound, compared to control; ATP 50 μM
# Chain of MAPK2/ERK2 (P28482 whole entry): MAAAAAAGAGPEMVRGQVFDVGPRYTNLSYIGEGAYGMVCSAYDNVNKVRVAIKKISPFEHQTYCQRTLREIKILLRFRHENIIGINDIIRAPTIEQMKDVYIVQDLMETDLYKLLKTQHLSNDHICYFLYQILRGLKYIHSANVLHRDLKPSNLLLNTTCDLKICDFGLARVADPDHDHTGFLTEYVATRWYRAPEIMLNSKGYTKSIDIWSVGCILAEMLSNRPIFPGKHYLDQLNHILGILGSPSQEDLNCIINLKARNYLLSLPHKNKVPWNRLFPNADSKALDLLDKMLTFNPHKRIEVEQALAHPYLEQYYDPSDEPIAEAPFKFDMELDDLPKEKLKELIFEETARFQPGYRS
# Procedure: as §1
# [27] = biological target: MKK1 (Homo sapiens, UniProt Q02750); assay: Kinase selectivity profile, MKK1; assay type: biochemical; settings: 5 μM test compound, compared to control; ATP 5 μM
# Procedure: as §1
# [28] = biological target: PRK2 (Homo sapiens, UniProt Q16513); assay: Kinase selectivity profile, PRK2; assay type: biochemical; settings: 5 μM test compound, compared to control; ATP 5 μM
# Procedure: as §1
# Chain of MAPKAP-K1a (Q15418 whole entry, species assumed): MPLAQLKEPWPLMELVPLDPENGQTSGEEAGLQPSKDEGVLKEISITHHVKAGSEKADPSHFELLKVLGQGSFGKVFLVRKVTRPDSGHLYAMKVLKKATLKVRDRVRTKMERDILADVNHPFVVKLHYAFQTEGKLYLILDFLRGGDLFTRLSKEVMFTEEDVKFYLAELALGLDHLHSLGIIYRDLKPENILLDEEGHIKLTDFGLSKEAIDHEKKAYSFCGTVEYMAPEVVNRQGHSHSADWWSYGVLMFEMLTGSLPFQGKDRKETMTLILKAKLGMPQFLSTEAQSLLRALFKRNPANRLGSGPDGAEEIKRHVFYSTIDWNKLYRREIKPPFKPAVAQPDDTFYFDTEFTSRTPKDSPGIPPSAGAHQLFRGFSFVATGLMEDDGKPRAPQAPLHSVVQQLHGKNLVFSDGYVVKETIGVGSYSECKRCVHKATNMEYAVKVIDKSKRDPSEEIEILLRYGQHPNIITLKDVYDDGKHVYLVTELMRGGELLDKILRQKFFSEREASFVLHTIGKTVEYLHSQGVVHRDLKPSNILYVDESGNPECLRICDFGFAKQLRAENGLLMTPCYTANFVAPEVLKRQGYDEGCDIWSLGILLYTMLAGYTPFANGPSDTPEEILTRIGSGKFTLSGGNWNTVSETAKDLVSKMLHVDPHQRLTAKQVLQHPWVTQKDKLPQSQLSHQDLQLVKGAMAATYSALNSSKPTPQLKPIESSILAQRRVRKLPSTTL
Structure (SMILES),remaining activity at 5 µM [2],remaining activity at 5 µM [3],remaining activity at 5 µM [4],remaining activity at 5 µM [5],remaining activity at 5 µM [6],remaining activity at 5 µM [7],remaining activity at 5 µM [8],remaining activity at 5 µM [9],remaining activity at 5 µM [10],remaining activity at 5 µM [11],remaining activity at 5 µM [12],remaining activity at 5 µM [13],remaining activity at 5 µM [14],remaining activity at 5 µM [15],remaining activity at 5 µM [16],remaining activity at 5 µM [17],remaining activity at 5 µM [18],Remaining activity (%) AMPK [19],remaining activity at 5 µM [20],Remaining activity (%) CK2 [21],also measured
"COCCNS(=O)(=O)c1cccc(Nc2nccc(-c3sc(N)nc3C)n2)c1 [Compound 55, 3-[4-(2-Amino-4-methyl-thiazol-5-yl)-pyrimidin-2-ylamino]-N-(2-methoxy-ethyl)-benzenesulfonamide]",,,,,,,,,,,,,,,,,,,,,melting point: 179 to 180 °C
"CNc1nc(C)c(-c2ccnc(Nc3cccc(S(N)(=O)=O)c3)n2)s1 [Compound 19, 3-[4-(4-Methyl-2-methylamino-thiazol-5-yl)-pyrimidin-2-ylamino]-benzenesulfonamide]",,,,,,,,,,,,,,,,,,,,,IC50 [1]: 1200 nM
"Cc1nc(CS(=O)(=O)c2cccs2)sc1-c1ccnc(Nc2ccc(N3CCOCC3)cc2)n1 [Compound 138, {4-[4-Methyl-2-(thiophene-2-sulfonylmethyl)-thiazol-5-yl]-pyrimidin-2-yl}-(4-morpholin-4-yl-phenyl)-amine]",34%,84%,48%,5%,27%,29%,18%,80%,5%,44%,21%,55%,110%,15%,91%,30%,27%,28%,34%,5%,remaining activity at 5 µM [22]: 14%; remaining activity at 5 µM [23]: 9%; remaining activity at 5 µM [24]: 92%; remaining activity at 5 µM [25]: 10%; remaining activity at 5 µM [26]: 39%; remaining activity at 5 µM [27]: 21%; remaining activity at 5 µM [28]: 78%
"CCNc1nc(C)c(-c2ccnc(Nc3ccc(N4CCNCC4)cc3)n2)s1 [Compound 59, [4-(2-Ethylamino-4-methyl-thiazol-5-yl)-pyrimidin-2-yl]-(4-piperazin-1-yl-phenyl)-amine]",14%,84%,17%,0%,20%,22%,3%,47%,4%,10%,37%,10%,88%,13%,30%,14%,4%,2%,7%,2%,remaining activity at 5 µM [22]: 5%; remaining activity at 5 µM [23]: 1%; remaining activity at 5 µM [24]: 75%; remaining activity at 5 µM [25]: 2%; remaining activity at 5 µM [26]: 59%; remaining activity at 5 µM [27]: 25%; remaining activity at 5 µM [28]: 8%

# — patent US20090137572A1, “2-substituted-4-heteroaryl-pyrimidines useful for the treatment of proliferative disorders” (priority 2004, published 2009)
